Test results taken from patent US10781227B2, “Application of metal complexes in anti-tumor and anti-bacterial therapy” (biolitec Unternehmensbeteiligungs II AG, priority 2018, dated 2020).

Legend:
[1] = test system: Staphylococcus aureus DSM 11729; experiment: Antibacterial testing, colony-forming units after incubation with or without white light; type: cell-based; conditions: 100, 10 or 1 μM; for activity/toxicity against S. aureus without light: no illumination, CFU/ml; for activity against S. aureus under irradiation: 30 min incubation, white light about 100 J/cm^2, CFU/ml
Method: (§1) The organisms studied were Staphylococcus aureus DSM 11729, Gram-positive; Acinetobacter baumannii DSM30007, and Klebsiella pneumoniae DSM30104, both Gram-negative. Cultures cells are suspended in sterile phosphate-buffered saline (PBS) or sterile PBS supplemented with 10% sterile horse blood serum. The bacterial suspensions are placed into sterile black well plates with clear bottoms. Concentrations of photosensitizer used in the study were as follows: 100 μM, 10 μM and 1 μM. After an incubation time period of 30 minutes, the samples are exposed to white light, with a power density and irradiation time resulting in an energy fluency of about 100 J/cm^2. Control plates contained no photosensitizer and are not exposed to laser light. The control samples for dark toxicity are only exposed to photosensitizer without any illumination. After irradiation, the samples are removed and suspended again in the culture media. The numbers of colony-forming units (CFU/ml) are enumerated after an adequate incubation time period.

[2] = test system: HT29, L929, A431, A253, CAL-27 and J774A.1 cell lines; experiment: Cell test of photodynamic activity and light independent toxicity, XTT cell viability assay; type: cell-based, human, mouse; conditions: for toxicity against tumor cells in the absence of light / activity against the cell lines without light: 2 or 10 μM; for toxicity against tumor cells in the absence of light: no irradiation; for activity against the cell lines under irradiation (phototoxicity): 2 or 10 μM photosensitizer, 24 h incubation, white light 50 J/cm^2, XTT after 24 h; for activity against the cell lines without light: no irradiation (dark toxicity)
Method: The photosensitizing activity was determined in the following cell lines: • HT29 (human colon adenocarcinoma cell line) • L929 (mouse fibroblast cell line) • A431 (human epidermoid carcinoma cell line) • A253 (submaxillary salivary gland, epidermoid cell line) • CAL-27 (human tongue squamous cell carcinoma cell line) • J774A.1 (Mouse BALB/c monocyte macrophage). The cell lines were grown in DMEM (PAA Laboratories GmbH) supplemented with 10% heat-inactivated fetal calf serum (FCS, PAA Laboratories GmbH), 1% penicillin (10000 IU) and streptomycin (10000 μg/ml, PAA Laboratories GmbH). Cells were kept as a monolayer culture in a humidified incubator (5% CO2 in air at 37° C.). A photosensitizer stock solution (2 mM) was performed in DMSO and was kept in the dark at 4° C. […] Cells were incubated with fresh medium (DMEM without phenol red) containing 10% FCS with 2 or 10 μM of the photosensitizer for 24 h before light exposure. Before photosensitization, cells were washed, cell culture medium was exchanged with DMEM without phenol red and 10% FCS, then irradiated at room temperature with white light source at a fixed fluence rate of about 100 mW/cm^2 (50 J/cm^2). Following irradiation, cells were incubated in a humidified incubator (5% CO2 in air at 37° C.) for 24 h until cell viability assay. […] Solution was stored in the dark at −20° C. until use. A sterile solution containing PMS ([…], Applichem GmbH) was needed as an activation reagent for the XTT. 0.383 mg PMS was dissolved in 1 ml PBS-Buffer. The solution should be stored frozen and should not be exposed to light. The XTT reagent solution was thawed in a 37° C. water bath and the activation solution (PMS) was added immediately prior to use. To prepare a reaction solution sufficient for one micro plate (96 wells), 0.1 ml activation solution (PMS) was given to 5 ml XTT reagent. The medium in the micro plate was exchanged with RPMI without phenol red and 10% FCS (100 μl) prior adding 50 μl XTT reaction solution per well. The micro plate was incubated for 2-3 hours at 37° C. and 5% CO2 until an orange dye was formed. The micro plate has been shaken gently to evenly distribute the dye in the wells. The absorbance of the samples was measured with a spectrophotometer (Infinite 200, Tecan Group Ltd.) at a wavelength of 490 nm.

[3] = test system: Klebsiella pneumoniae DSM30104; experiment: Antibacterial testing, colony-forming units after incubation with or without white light; type: cell-based; conditions: 100, 10 or 1 μM
Method: as §1

[4] = test system: Staphylococcus aureus DSM 11729; Acinetobacter baumannii DSM30007; Klebsiella pneumoniae DSM30104; experiment: Antibacterial testing, bacteria not specified; type: cell-based; conditions: PBS supplemented with 10% sterile horse blood serum
Method: as §1

Substance | activity/toxicity against S. aureus without light [1] | toxicity against tumor cells in the absence of light [2] | activity against S. aureus under irradiation [1] | activity against K. pneumoniae under irradiation ([3]; 30 min incubation, white light about 100 J/cm^2, CFU/ml) | activity against K. pneumoniae without light ([3]; no illumination, CFU/ml) | antibacterial activity in the presence of complex media (serum addition) [4] | activity against the cell lines under irradiation (phototoxicity) [2] | activity against the cell lines without light [2]
[bis(2,2′-bipyridyl(4-(prop-2-enyloxy)-2,3,5,6-tetrafluorophenyl)-dipyrrinato)]ruthenium(II) chloride [Example 4.8] | high toxicity | high toxicity |  |  |  |  |  | 
Tris[5-(4-β-D-thioglucosyl)-2,3,5,6-tetrafluorophenyl)dipyrrinato gallium(III) [Example 4.3] | nearly no activity |  | high activity | high activity | nearly no activity | antibacterial activity is also observed | high activity | no activity
Tris[5-(4-β-D-thiogalactosyl)-2,3,5,6-tetrafluorophenyl)dipyrrinato gallium(III) [Example 4.5] | nearly no activity |  | high activity |  |  |  | high activity | no activity
[bis(2,2′-bipyridyl(4-(prop-2-enylamino)-2,3,5,6-tetrafluorophenyl)-dipyrrinato)]ruthenium(II) chloride [Example 4.7] | high toxicity | high toxicity |  |  |  | antibacterial activity is also observed |  | 
[bis(2,2′-bipyridyl(4-(hexyloxy)-2,3,5,6-tetrafluorophenyl)-dipyrrinato)]ruthenium(II) chloride [Example 4.6] |  | high toxicity |  |  |  |  |  | 
